Data set [1] in a line: Clinical study of transdermal mecamylamine patches in smokers, treatment emergent effects. The note with it: for Side effect: Constipation: transdermal patches of Example 1, smokers but otherwise healthy subjects. Type of data set: in vivo, human. From the text:
The mecamylamine transdermal formulation is a transdermal patch that contains mecamylamine blended with an acrylic adhesive that is coated onto a printed backing to produce transdermal patches.

A short description of data set [2]: Second clinical trial, treatment emergent effects associated with ganglion blocking activity. It is filed as in vivo, human. The method, then: In a second clinical trial, the frequency of treatment emergent effects typically associated with “ganglion blocking” activity was assessed. The following treatment emergent effects were found: […]
Data set [3] can be described thus: Pharmacokinetics of oral conventional formulation in adults (Young et al. 2001). The note with it: expected. It is filed as in vivo, human adults. As for the experimental part: Bear et al., Am. J. Physiol., 186, 180-86 (1956). […] Young et al., Clinical Therapeutics, 23(4) (2001). […] The typical dose used for treating hypertensive subjects is about 25 mg/day, and is dosed using conventional formulations.

Data set [4] deals with patients with dominant chronic diarrhea symptoms (functional diarrhea). The experiment in a line: Example 3 randomized, double-blind, placebo-controlled forced dose escalation study in Functional Diarrhea. It is filed as in vivo, human. The note with it: for number of patients showing improvement in stool consistency / percent of patients showing improvement in stool consistency: modified per-protocol population. The text has this: Eight-two patients (both male and female) meeting ROME II criteria (modified) for Functional Diarrhea were randomized in the study. […] For example, the following table summarizes the number of patients showing “improvement” in stool consistency. Prior to treatment, patients were to be experiencing >50% of the time, a mushy/watery stool consistency in at least 75% of their daily stools. “Improvement” represents a patient experiencing <50% of the time, a mushy/watery stool consistency in at least 75% of daily stools.

For data set [5] the following is noted: 2.5 mg dose, conventional formulation, adults; cited from earlier work.
The mark [6] stands for this setting: transdermal patches of Example 1, smokers.

Structures can show the parent of a compound that is named as a salt.

As for `CNC1(C)C2CCC(C2)C1(C)C` (stereo not drawn) [Mecamylamine, N-2,3,3-tetramethylbicyclo-[2.2.1]heptan-2-amine], in data set [1] (setting [6]), the “Side effect: Application” value is recorded as 25%, the “Side effect: Asthenia” value worked out at 14%, the “Side effect: Dizziness” value came to 17% and the “Side effect: Headache” value is 36%. In addition, in data set [1] (setting [6]), the “Side effect: Insomnia” value stood at 14%, the “Side effect: Nausea” value was determined as 15% and the “Side effect: Rash” value is on record as 13%. In data set [1], the “Side effect: Constipation” value was found to be 42%. Moreover, the “Side effect: Constipation” value in data set [1] (listed as mecamylamine) was found to be 42%. Also, in data set [2], the “Side effect: Cardiac Disorder” value was 1.3%, the “Side effect: Constipation” value came to 28.9%, the “Side effect: Dizziness” value stood at 4.0% and the “Side effect: Dry Mouth” value came out at 3.4%. For the same compound, in data set [2], the “Side effect: Eye” value is recorded as 0.7%, the “Side effect: Gastrointestinal” value is given as 4.36%, the “Side effect: Nausea” value turned out to be 5.4% and the “Side effect: Urinary Retention” value was 0.7%. Also, in data set [3], the “24 hour plasma concentration level as % of peak plasma concentration” value is reported as “less than 25%” and the “time for which about 50% of the peak plasma concentration is maintained” value was “about 14 hours”. Moreover, the “overall incidence of adverse events versus placebo” value in data set [4] (12-week study) is “similar”. In addition, the “changes in blood pressure” value in data set [4] (12-week study, FIGS. 1 and 2) is listed as “no clinically significant changes in blood pressure”. Besides, in data set [4] (Entire Study), the “number of patients showing improvement in stool consistency” value (shortened to “number of patients showing improvement”) is on record as 8/18 and the “percent of patients showing improvement in stool consistency” value (“percent of patients showing improvement” below) came out at 44.4%. Further, in data set [4] (Week 4 (2 mg/day)), the “number of patients showing improvement” value was 8/18 and the “percent of patients showing improvement” value worked out at 44.4%. For the same compound, in data set [4] (Week 8 (4 mg/day)), the “number of patients showing improvement” value is given as 8/18 and the “percent of patients showing improvement” value was 44.4%. Further, in data set [4] (Week 12 (6 mg/day)), the “number of patients showing improvement” value is on record as 9/18 and the “percent of patients showing improvement” value was found to be 50.0%. Further, in data set [4] (intent-to-treat analysis, entire 12 weeks of dose-escalation therapy), the “primary and secondary endpoints versus placebo” value is “failed to show any statistically significant difference from placebo”. Besides, in data set [4] (intent-to-treat analysis, week 4 (2 mg/day)), the “stool consistency versus placebo” value is reported as “improvement in stool consistency”. The “stool consistency versus placebo” value in data set [4] (modified per-protocol population (n=35), entire dose-escalation and each dose treatment phase) is “significant improvements in stool consistency”.

With `CNC1(C)C2CCC(C2)C1(C)C` (stereo not drawn) [mecamylamine hydrochloride, N-2,3,3-tetramethylbicyclo[2.2.1]heptan-2-amine hydrochloride], the “maximum plasma concentration (Cmax)” value in data set [5] is on record as “about 7.89 ng/mL”.

These data come from patent publication US9040591B2, “Methods and compositions comprising at least one α3 βA4 nAChR antagonist or pharmaceutically acceptable salt thereof” (AGI Therapeutics Public Limited Company, priority 2003, dated 2015).
